One series deals with Rat glioma C6 cells. The experiment in a line: ROS mitigation in cells using DCFH-DA. Format: cell-based. On the procedure:
Rat C6 glioma cells were grown in a 25 cm^2 culture flask containing Dulbecco’s modified Eagle medium (DMEM) supplemented with 10% (v/v) fetal bovine serum (FBS) at 37 °C in a 5% CO2 atmosphere.
To evaluate redox homeostasis, the level of ROS was assessed using the redox-sensitive dye 2′,7′-dichlorodihydrofluorescein diacetate (DCFH-DA). Rat C6 glioma cells were seeded at a density of 1 × 10^5 cells/well in a 96-well plate and cultured in high-glucose DMEM supplemented with 10% (v/v) FBS at 37 °C in a 5% CO2 atmosphere. The cells were pretreated with the compounds (25 μmol L^–1) and incubated for 24 h. The cells were washed and subjected to different oxidative stress models for 1 h, including (i) metallic stress via the addition of 25 μmol L^–1 CuCl, (ii) direct addition of a 25 μmol L^–1 hydrogen peroxide solution, (iii) superoxide anion (O2^•–) generated by the xanthine ([…])/xanthine oxidase (0.1 unit/mL) enzymatic system, and (iv) hydroxyl radical (^•OH) generated by the Fenton reaction using 0.4 μmol L^–1 CuCl and 4 μmol L^–1 H2O2. The concentrations refer to the final concentrations of each well. After exposure to the oxidative stress conditions, the cells were washed and incubated with DCFH-DA (10 μmol L^–1) for 45 min. The fluorescence was measured using the model M200 Tecan Infinite microplate reader with excitation and emission wavelengths of 450 and 535 nm, respectively.

For series [1] the following is noted: cited from earlier work.
On the set-up of series [2]: method as in PMID 4833643. Particulars: cited from earlier work.
Series [3] in a line: Potentiometric titration: protonation equilibria and species distribution. The note with it: 70:30 ethanol/water solution, 25 °C, read-out: log K [H2L^+]/[HL][H^+] (pKa of the amine group). The series is classed as physicochemical. On the procedure:
The potentiometric studies were carried out with a Corning 350 digital pH meter fitted with blue-glass and Ag/AgCl reference electrodes calibrated to read −log[H^+] directly, designated as pH. Doubly distilled water in the presence of KMnO4 was used to prepare the solutions. For the ligands, the study was performed in a 70:30 ethanol/water solution, while the copper complexes were studied in water. The electrode was calibrated using the data obtained from the potentiometric titration of a known volume of a standard 0.100 mol L^–1 HCl solution with a standard 0.100 mol L^–1 KOH solution. The ionic strength of the HCl solution was maintained at 0.100 mol L^–1 upon the addition of KCl. […]
The titration curves were processed with BEST7,[86] which has as input file: titrant concentration, an initial value for the number of millimoles of the species under investigation, the volume increments of the titrant added, and the corresponding values of pH measured during titration. The program uses the least-squares method to minimize the differences between the calculated pH values and the experimental ones obtained during the titration, keeping fixed the values of the known equilibrium constants, such as those for the hydrolysis of the metal ion,[87] and varying the values of the constants to be determined, minimizing the error. […]

On the set-up of series [4]: method as in doi:10.3390/pr10010132. Particulars: studied under the same conditions; read-out: RSA50; cited from earlier work.

What is called IC50 is the concentration that gives 50% inhibition.

Each structure is given as a SMILES string. Where two headings read alike, the source gives them in different places.

Take `[Cl][Cu]` [Cu(I), CuCl, reference compound]: the “increase of cell fluorescence (ROS level) compared to the control” value in the series with Rat glioma C6 cells (25 μmol L^–1 CuCl, 1 h) is 3 fold.
On to `[Cl][Cu][Cl]` [CuCl2·2H2O], for which, in series [1], the IC50 was 0.91 ± 0.191 µM.
On to `CC(O)CNCc1ccccn1` (stereo not shown) [HL, 1-(pyridin-2-ylmethylamino)propan-2-ol], for which the “pKa of the pyridine group” value in series [2] is reported as less than 3. Further, the pKa in series [3] was 8.11. The “antioxidant effect in cells exposed to hydroxyl radical” value in the series with Rat glioma C6 cells (pretreatment 25 μmol L^–1, 24 h, 0.4 μmol L^–1 CuCl and 4 μmol L^–1 H2O2 1 h) is reported as “HL ∼ 1 > 2”. For the same compound, in the series on Rat glioma C6 cells (pretreatment 25 μmol L^–1, 24 h, 25 μmol L^–1 CuCl 1 h), the “redox status of cells exposed to Cu(I) (DCFH-DA fluorescence)” value is recorded as “no change in the cell redox status”. Besides, the “protection of cells against exogenous H2O2 (redox level)” value in the series with Rat glioma C6 cells (pretreatment 25 μmol L^–1, 24 h, 25 μmol L^–1 H2O2 1 h) is given as “maintaining the redox state at the basal level”. Besides, the “antioxidant protection of cells against superoxide radical anion” value in the series on Rat glioma C6 cells (pretreatment 25 μmol L^–1, 24 h, xanthine/xanthine oxidase 1 h) is “maintaining the redox state at the basal level”.
Consider `NC(=O)CCNCCNCCC(N)=O.[Cl-].[Cl-].[Cu+2]` [[Cu(BCEN)]Cl2·2H2O], for which the concentration for half-maximal inhibition (IC50) in series [1] is 0.179 ± 0.017 µM.
In the case of `NC(=O)CCN1CCCN(CCC(N)=O)CC1.[Cl-].[Cl-].[Cu+2]` [[Cu(BPAH)H2O]Cl2], the concentration for half-maximal inhibition (IC50) in series [1] was 0.129 ± 0.033 µM.
With `NC(=O)CCN1CCN(CCC(N)=O)CC1.[Cl-].[Cl-].[Cu+2]` [[Cu(BPAP)H2O]Cl2], the IC50 in series [1] is 0.168 ± 0.03 µM.
As for `[Cl][Cu][Cl].c1ccc(CNCc2ccccn2)nc1` [[Cu(bmpa)Cl2]], in series [4], the EC50 was 1070 µM.
On to `c1ccc(CNCc2ccccn2)nc1` [bis(2-pyridylmethyl)amine, reference compound], for which the pKa in series [2] (amine group) was 7.28.
